Patent US6706664B1, “Benzoxazole compounds, process for the preparation thereof and herbicides” (UBE Industries, Ltd., priority 1999, dated 2004)

Tests used:
Set-up in all cases: key: 0: normal development; 1: Less damaged; 2: Slightly damaged; 3: Moderately damaged; 4: Severely damaged; 5: All killed
Large crabgrass [1] = test: Foliar spread test for upland field; assay type: in vivo, Digitaria adscendens; details: foliar spray 500 ppm, 3 weeks, rank vs non-treated
From the text: (§1) (0: normal development, 1: Less damaged, 2: Slightly damaged, 3: Moderately damaged, 4: Severely damaged, 5: All killed).
(§2) Wagner pots, each having an area of 1/5000 are, were packed with volcanic ash soil and then each seed of corn, soybean, cotton, wheat, solgum, sugar beat, Large crabgrass, barnyardgrass, green foxtail, blackgrass, annual bluegrass, common lambsquartes, livid amaranth, velvetleaf and morning glory was planted, covered with soil and grown in a glass house at an average temperature of […] for about 2 weeks.
(§3) Each wettable powder of the desired compounds (I) shown in Table 1 prepared in accordance with Example 2 was diluted to 500 ppm with water containing a surfactant (0.5%) and then uniformly sprayed on the above respective plants.
(§4) After these plants were controlled in a glass house at an average temperature of 25° C. for 3 weeks, the herbicidal effects thereof were investigated.
(§5) The herbicidal effects were evaluated according to the evaluation method described in the above (1).

livid amaranth [2] = test: Foliar spread test for upland field; assay type: in vivo, Amaranthus lividus; details: foliar spray 500 ppm, 3 weeks, rank vs non-treated
From the text: as §1, §2, §3, §4, §5

green foxtail [3] = test: Soil treatment test for upland field; assay type: in vivo, Setaria viridis; details: 500 g/ha, glass house 25° C., 3 weeks
Summary of the method: (§6)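 Pre-emergence test: seeds sown in Ube alluvial soil in Wagner pots, soil surface sprayed with wettable powder in water with 0.05% surfactant at 500 g/ha. Plants kept in a glasshouse at average 25 °C for 3 weeks, then damage scored 0 (normal) to 5 (all killed).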

solgum [4] = test: Soil treatment test for upland field; assay type: in vivo; details: 500 g/ha, glass house 25° C., 3 weeks
Summary of the method: as §6

cotton [5] = test: Soil treatment test for upland field; assay type: in vivo; details: 500 g/ha, glass house 25° C., 3 weeks
Summary of the method: as §6

sugar beat [6] = test: Soil treatment test for upland field; assay type: in vivo; details: 500 g/ha, glass house 25° C., 3 weeks
Summary of the method: as §6

wheat [7] = test: Soil treatment test for upland field; assay type: in vivo; details: 500 g/ha, glass house 25° C., 3 weeks
Summary of the method: as §6

soybean [8] = test: Soil treatment test for upland field; assay type: in vivo; details: 500 g/ha, glass house 25° C., 3 weeks
Summary of the method: as §6

corn [9] = test: Soil treatment test for upland field; assay type: in vivo; details: 500 g/ha, glass house 25° C., 3 weeks
Summary of the method: as §6

Large crabgrass [10] = test: Soil treatment test for upland field; assay type: in vivo, Digitaria adscendens; details: 500 g/ha, glass house 25° C., 3 weeks
Summary of the method: as §6

monochoria = test: Herbicidal test for paddy field; assay type: in vivo, Monochoria vaginalis; details: paddy field pot, 500 g/ha dropwise at 1.5 leaf stage of barnyardgrass, 3 weeks, rank vs non-treated
Protocol: (§7) Wagner pots, each having an area of 1/5000 are, were packed with Ube soil (alluvial soil) and planted with seeds or tubers of young rice plant, barnyardgrass, bulrush, flat sedge and monochoria. Then, the pots were filled with water to a depth of 3 cm.
(§8) Each wettable powder of the desired compounds (I) shown in Table 1 prepared in accordance with Example 2 was diluted with water containing a surfactant (0.05%) and subjected to dropwise addition treatment by using pipet so that an effective concentration of the compound (I) in each herbicide became 500 g/ha at 1.5 leaf stage of barnyardgrass.
(§9) These plants were controlled in a glass house at an average temperature of 25° C. for 3 weeks, and then herbicidal effects thereof were investigated.
(§10) The herbicidal effects are evaluated according to the following 6 ranks as compared with non-treated district.
as §1

annual bluegrass [11] = test: Soil treatment test for upland field; assay type: in vivo, Poa annua; details: 500 g/ha, glass house 25° C., 3 weeks
Summary of the method: as §6

blackgrass [12] = test: Soil treatment test for upland field; assay type: in vivo, Alopecurus aegualis; details: 500 g/ha, glass house 25° C., 3 weeks
Summary of the method: as §6

barnyardgrass [13] = test: Herbicidal test for paddy field; assay type: in vivo, Echinochloa crusgalli; details: paddy field pot, 500 g/ha dropwise at 1.5 leaf stage of barnyardgrass, 3 weeks, rank vs non-treated
Protocol: as §7, §8, §9, §10, §1

livid amaranth [14] = test: Soil treatment test for upland field; assay type: in vivo, Amaranthus lividus; details: 500 g/ha, glass house 25° C., 3 weeks
Summary of the method: as §6

solgum [15] = test: Foliar spread test for upland field; assay type: in vivo; details: foliar spray 500 ppm, 3 weeks, rank vs non-treated
From the text: as §1, §2, §3, §4, §5

cotton [16] = test: Foliar spread test for upland field; assay type: in vivo; details: foliar spray 500 ppm, 3 weeks, rank vs non-treated
From the text: as §1, §2, §3, §4, §5

sugar beat [17] = test: Foliar spread test for upland field; assay type: in vivo; details: foliar spray 500 ppm, 3 weeks, rank vs non-treated
From the text: as §1, §2, §3, §4, §5

wheat [18] = test: Foliar spread test for upland field; assay type: in vivo; details: foliar spray 500 ppm, 3 weeks, rank vs non-treated
From the text: as §1, §2, §3, §4, §5

corn [19] = test: Foliar spread test for upland field; assay type: in vivo; details: foliar spray 500 ppm, 3 weeks, rank vs non-treated
From the text: as §1, §2, §3, §4, §5

green foxtail [20] = test: Foliar spread test for upland field; assay type: in vivo, Setaria viridis; details: foliar spray 500 ppm, 3 weeks, rank vs non-treated
From the text: as §1, §2, §3, §4, §5

velvetleaf [21] = test: Soil treatment test for upland field; assay type: in vivo, Abutilon theophrasti; details: 500 g/ha, glass house 25° C., 3 weeks
Summary of the method: as §6

velvetleaf [22] = test: Foliar spread test for upland field; assay type: in vivo, Abutilon theophrasti; details: foliar spray 500 ppm, 3 weeks, rank vs non-treated
From the text: as §1, §2, §3, §4, §5

common lambsquartes [23] = test: Soil treatment test for upland field; assay type: in vivo, Chenopodium album; details: 500 g/ha, glass house 25° C., 3 weeks
Summary of the method: as §6

common lambsquartes [24] = test: Foliar spread test for upland field; assay type: in vivo, Chenopodium album; details: foliar spray 500 ppm, 3 weeks, rank vs non-treated
From the text: as §1, §2, §3, §4, §5

barnyardgrass [25] = test: Soil treatment test for upland field; assay type: in vivo, Echinochloa crusgalli; details: 500 g/ha, glass house 25° C., 3 weeks
Summary of the method: as §6

morning glory = test: Foliar spread test for upland field; assay type: in vivo, Ipomoea spps.; details: foliar spray 500 ppm, 3 weeks, rank vs non-treated
From the text: as §1, §2, §3, §4, §5

young rice plant = test: Herbicidal test for paddy field; assay type: in vivo; details: paddy field pot, 500 g/ha dropwise at 1.5 leaf stage of barnyardgrass, 3 weeks, rank vs non-treated
Protocol: as §7, §8, §9, §10, §1

bulrush = test: Herbicidal test for paddy field; assay type: in vivo, Scrips juncoides; details: paddy field pot, 500 g/ha dropwise at 1.5 leaf stage of barnyardgrass, 3 weeks, rank vs non-treated
Protocol: as §7, §8, §9, §10, §1

annual bluegrass [26] = test: Foliar spread test for upland field; assay type: in vivo, Poa annua; details: foliar spray 500 ppm, 3 weeks, rank vs non-treated
From the text: as §1, §2, §3, §4, §5

blackgrass [27] = test: Foliar spread test for upland field; assay type: in vivo, Alopecurus aegualis; details: foliar spray 500 ppm, 3 weeks, rank vs non-treated
From the text: as §1, §2, §3, §4, §5

soybean [28] = test: Foliar spread test for upland field; assay type: in vivo; details: foliar spray 500 ppm, 3 weeks, rank vs non-treated
From the text: as §1, §2, §3, §4, §5

| SMILES | Effects Livid amaranth (livid amaranth [2]) | Effects Green foxtail (green foxtail [3]) | Effects Solgum (solgum [4]) | Effects Cotton (cotton [5]) | Effects Sugar beat (sugar beat [6]) | Effects Wheat (wheat [7]) | Effects Soybean (soybean [8]) | Effects Corn (corn [9]) | Effects Large crabgrass (Large crabgrass [10]) | Effects Annual bluegrass (annual bluegrass [11]) | Effects Livid amaranth (livid amaranth [14]) | Effects Solgum (solgum [15]) | Effects Sugar beat (sugar beat [17]) | Effects Wheat (wheat [18]) | Effects Corn (corn [19]) | Effects Green foxtail (green foxtail [20]) | Effects Velvetleaf (velvetleaf [21]) | Effects Velvetleaf (velvetleaf [22]) | Effects Common lambsquarters (common lambsquartes [23]) | Effects Common lambsquarters (common lambsquartes [24]) | further results |
| --- | --- | --- | --- | --- | --- | --- | --- | --- | --- | --- | --- | --- | --- | --- | --- | --- | --- | --- | --- | --- | --- |
| CCC(Oc1ccc(F)c(C(F)(F)F)c1)c1nc2cc(F)c(Cl)cc2o1 (stereo not drawn) [Compound 493] | 5 | 5 | 2 | 1 | 5 | 2 | 2 | 2 | 5 | 5 | 5 | 1 | 5 | 1 | 2 | 5 | 5 | 2 | 4 | 5 | Effects Large crabgrass (Large crabgrass [1]): 2; Effect Monochoria (monochoria): 5; Effects Blackgrass (blackgrass [12]): 4; Effect Barnyardgrass (barnyardgrass [13]): 5; Effects Cotton (cotton [16]): 2; Effects Barnyardgrass (barnyardgrass [25]): 4 |
| CCC(Oc1cccc(C#N)c1)c1nc2cc(S(C)(=O)=O)c(C)cc2o1 (stereo not drawn) [Compound 491] | 4 | – | – | – | – | – | – | – | – | – | – | 1 | 4 | 1 | 1 | 2 | – | 3 | – | 5 | Effects Morning glory (morning glory): 3; Effect Monochoria (monochoria): 5; Effect Young rice plant (young rice plant): 0; Effects Cotton (cotton [16]): 2; Effect Bulrush (bulrush): 3 |
| CCC(Oc1cccc(C(F)(F)F)c1)c1nc2cc(F)c(Cl)cc2o1 (stereo not drawn) [Compound 496] | 5 | 5 | 1 | 1 | 5 | 1 | 0 | 0 | 5 | 5 | 5 | 2 | 5 | 2 | 2 | 4 | 5 | 3 | 5 | 5 | Effects Large crabgrass (Large crabgrass [1]): 3; Effects Annual bluegrass (annual bluegrass [26]): 2; Effects Blackgrass (blackgrass [12]): 5; Effects Blackgrass (blackgrass [27]): 3; Effects Barnyardgrass (barnyardgrass [25]): 3 |
| CCCC(Oc1ccc(F)c(C(F)(F)F)c1)c1nc2cc(S(C)(=O)=O)c(C)cc2o1 (stereo not drawn) [Compound 488] | 5 | 5 | 0 | 1 | 5 | 0 | 0 | 0 | 5 | 5 | 5 | 1 | 5 | 1 | 1 | – | 5 | 3 | 4 | 3 | Effects Morning glory (morning glory): 2; Effects Soybean (soybean [28]): 2; Effects Barnyardgrass (barnyardgrass [25]): 2 |
| CCCC(Oc1ccc(F)c(C(F)(F)F)c1)c1nc2cc(C#N)c(C#N)cc2o1 (stereo not drawn) [Compound 318] | 5 | 4 | 0 | 0 | 5 | 0 | 0 | 0 | 2 | 4 | 5 | 1 | 5 | 1 | 1 | 5 | 5 | 2 | 5 | 3 | Effects Blackgrass (blackgrass [12]): 2; Effects Soybean (soybean [28]): 2 |
